Reference: patent US20220362182A1, “METHODS FOR REVERSING HEPATIC STEATOSIS” (BRIGHTSEED, INC., priority 2020, published 2022)
“Also recorded” adds a separate entry of the source.

Key:
T6PNE cells = assay: fat clearance assay in palmitate-treated T6PNE cells (Oil Red O, Nile Red, triglyceride); type: cell-based, human; settings: 0.25 mM palmitate for 2 days; for cellular triglyceride (TG) level: 10 μM
Description: Oil red O and Nile Red staining were used to measure lipid accumulation. Oil Red O staining was done as known in the art. Briefly, fixed cells were incubated with Oil Red O solution (Poly Scientific) for 3 h, followed by photomicrography (Olympus, IX71). For Nile Red staining, dye (1: 500 in PBS from 1 mg/ml in ethanol stock, Sigma) was added for 30 mins and DAPI added for 10 mins at room temperature. Quantification of Nile Red staining was done with a Celigo imaging cytometer (Nexcelom Bioscience). More than 4000 cells were analyzed for each quantification. The number of Nile Redpositive cells was normalized to the DAPI-positive cell number for each well and fold change was calculated relative to a DMSO control well.
Palmitate (150 mM) (Sigma-Aldrich) was prepared in 50% ethanol and precomplexed with 15% fatty acid-free BSA (Research Organics, Cleveland, Ohio, USA) in a 37 C water shaker. BSA-precomplexed palmitate was used as a 12 mM stock solution for all assays with a final concentration of 0.25 mM palmitate in cell culture medium.
siRNAs were purchased from Ambion. For transfections, 24 μL of each siRNA (1 μM stock) was mixed with 90 μL of a 1:100 dilution of Lipofectamine RNAi MAX (Invitrogen, Waltham, Mass., USA) in Opti-MEM. Transfection was done in 24 well plates (Thermo Fisher Scientific, Waltham, Mass., USA), by incubation with cells for 30 min. at room temperature. One day after transfection, cells were transferred to 96 well plates (2000 cells per well) and incubated at 37° C. for an additional day. Forty-eight hours after transfection, either palmitate-BSA complex or BSA control plus or minus compounds was added for 2 days. For validation of siRNAs, transfected cells were harvested for RNA purification and QPCR for each gene 2 days after transfection.
The bicinchoninic acid (BCA) protein assay kit assay (Thermo scientific) was used to measure protein amount for DART, Western blotting and TG assays. Absorbance at 550 nm was determined using a plate reader.

LC3B = assay: anti-LC3B Western blot in T6PNE cells; type: cell-based, human; settings: 10 μM
Description: (§1) Whole-cell extracts were prepared by incubation in RIPA buffer (Invitrogen) containing protease inhibitors (Calbiochem, San Diego, Calif.). Protein ([…]) was separated on 12% or 16% Tri-Glycine gels (Invitrogen) and transferred to Immobilon P membrane (0.2 μm pore, Millipore). After 1 h in phosphate-buffered saline-Tween (PBST) with 3% milk, membrane was incubated with antibodies to HNF4α (mouse, Novus, 1:1000), LC3B (rabbit, Novus, 1:500), p62 (SQSTM1, mouse, Santa Cruz, 1:1000) or β-actin (mouse, Santa Cruz, 1:2000), followed by secondary antibody conjugated to horseradish peroxidase (1:5000, Jackson Immune).

estrogenic activity = assay: assay for estrogenic activity; type: cell-based; settings: false-positive counter assay
p62 = p62 Western blot in T6PNE cells; type: cell-based, human; settings: NCT 10 μM, RA 10 μM, fenretinide
Description: as §1

| SMILES | fat clearance (stored fat by Oil Red O and Nile Red staining) (T6PNE cells) | cellular triglyceride (TG) level (T6PNE cells) | LC3B-II to LC3B-I ratio (LC3B) | estrogenic activity (estrogenic activity) | p62 protein expression normalized to actin (p62) |
| --- | --- | --- | --- | --- | --- |
| O=C(/C=C/c1ccc(O)c(O)c1)NCCc1ccc(O)cc1 [NCT, N-trans-caffeoyltyramine] | less stored fat than control cells; also recorded: induced fat clearance from palmitate-loaded cells | produced the same result as the Nile Red staining | induced increases | no estrogenic | induced increases |
| COc1cc(/C=C/C(=O)NCCc2ccc(O)cc2)ccc1O [NFT, N-trans feruloyltyramine] | less stored fat than control cells; also recorded: induced fat clearance from palmitate-loaded cells | produced the same result as the Nile Red staining | – | no estrogenic | – |
